The record followed here is article PMC4467469 (Methods in molecular biology (Clifton, N.J.), 2012).

In general, Kd refers to the concentration at which binding is half-saturated. A higher Kd goes with a looser complex.

This assay concerns the target Cdc42 (Homo sapiens, UniProt P60953). The experiment in a line: equilibrium binding by flow cytometry on beads.

Chain of Cdc42 (P60953 1-188): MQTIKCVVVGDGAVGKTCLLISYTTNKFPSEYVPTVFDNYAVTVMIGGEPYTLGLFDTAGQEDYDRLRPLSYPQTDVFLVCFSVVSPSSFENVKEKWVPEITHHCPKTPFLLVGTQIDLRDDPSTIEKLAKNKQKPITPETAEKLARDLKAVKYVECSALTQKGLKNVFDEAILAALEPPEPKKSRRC

Turning to `Cc1cc(C)n2c1C=C1C=CC(CCC(=O)NCCNC(=O)OC3C(COP(=O)(O)OP(=O)(O)OP(=O)(O)O)OC(n4cnc5c(=O)[nH]c(N)nc54)C3O)=[N+]1[B-]2(F)F` (stereo not shown) [BODIPY-FL-GTP], the affinity, expressed as Kd, was 0.6 nM.
